Like-named read-outs stand apart in the source and are kept apart here.

Experimental findings from patent US10316017B2, “COT modulators and methods of use thereof” (Gilead Sciences, Inc., priority 2015, dated 2019) are described below.

Experiment [1] concerns TNFα production in LPS-stimulated human monocytes. Description: Cot Monocyte TNFα Cell Based Assay. Particulars: Homo sapiens, Monocyte, read-out: EC50 TNF. The procedure, abridged:
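5,000 cells/well; cmpd 1 h, 37 °C, 0.5% DMSO final; LPS 50 pg/ml, 4 h, 37 °C; media TNFα by HTRF sandwich (cryptate/XL665), RT overnight; % control vs unstimulated/stimulated wells.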

Experiment [2] concerns the target T1, human Cot catalytic domain (30-397 amino acids) (Homo sapiens, UniProt P41279).
T1 construct: Purified recombinant human Cot catalytic domain (30-397 amino acids) was purchased from Cama Biosciences; purchased Cama Biosciences (so in the source)
Nature of the experiment: High Throughput Cot Biochemical Assay (KinEASE TR-FRET). Particulars: read-out: IC50 HTRF. The essentials:
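First, purified human Cot (aa 30-397) at 5 nM phosphorylates an XL665-labeled STK3 peptide (1 μM) at 400 μM ATP, pH 7.0, 0.1% DMSO. Then a europium-conjugated phospho-specific antibody binds the product, giving the TR-FRET signal.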

Where [3] appears, read: TNFα in LPS-stimulated human monocytes.
[4] abbreviates: Cot biochemical HTRF (KinEASE TR-FRET) assay.
Where [5] appears, read: LPS-stimulated human monocytes, TNFα TR-FRET.
[6] abbreviates: Cot KinEASE TR-FRET, 400 μM ATP.
Where [7] appears, read: Cot KinEASE TR-FRET (HTRF) biochemical assay, 400 μM ATP.

T1 sequence (P41279 30-397): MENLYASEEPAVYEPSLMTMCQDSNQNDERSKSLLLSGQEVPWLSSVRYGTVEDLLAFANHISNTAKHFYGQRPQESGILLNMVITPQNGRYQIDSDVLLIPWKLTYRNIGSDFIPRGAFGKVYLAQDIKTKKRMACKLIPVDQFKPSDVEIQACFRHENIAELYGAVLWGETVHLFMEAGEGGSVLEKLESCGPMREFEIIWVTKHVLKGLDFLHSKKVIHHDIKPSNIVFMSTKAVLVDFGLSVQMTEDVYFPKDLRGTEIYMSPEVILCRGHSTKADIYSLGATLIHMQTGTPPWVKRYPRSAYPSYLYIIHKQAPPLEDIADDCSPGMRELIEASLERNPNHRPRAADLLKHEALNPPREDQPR

`CC[C@@H](Nc1c(C#N)cnc2c(Cl)cc(N[C@@H](c3ccc(F)cc3)c3cn(C)nn3)cc12)c1ccccc1` [Example 416, 8-chloro-6-(((S)-(4-fluorophenyl)(1-methyl-1H-1,2,3-triazol-4-yl)methyl)amino)-4-(((R)-1-phenylpropyl)amino) quinoline-3-carbonitrile]: the EC50 in experiment [1] (setting [3]) was determined as 209 nM. Moreover, the IC50 in experiment [2] (setting [4]) worked out at 6 nM.

Consider `[2H][C@](Nc1cc(Br)c2ncc(C#N)c(NCC(C)(C)C)c2c1)(c1ccc(F)cc1)c1cn(CC(O)CNC(C)(C)C)nn1` (stereo partly drawn) [Example 988, 8-bromo-6-(((1S)-(1-(3-(tert-butylamino)-2-hydroxypropyl)-1H-1,2,3-triazol-4-yl)(4-fluorophenyl)methyl-d)amino)-4-(neopentylamino)quinoline-3-carbonitrile], for which the EC50 in experiment [1] (setting [5]) turned out to be 334 nM. For the same compound, the IC50 in experiment [2] (setting [6]) came to 14 nM.

As to `N#Cc1cnc2c(Cl)cc(N[C@@H](c3ccccc3)c3cn(CCCN4CCCC4)nn3)cc2c1Nc1c(F)cc(F)cc1F` [Example 472, (S)-8-chloro-6-((phenyl(1-(3-(pyrrolidin-1-yl)propyl)-1H-1,2,3-triazol-4-yl)methyl)amino)-4-((2,4,6-trifluorophenyl)amino) quinoline-3-carbonitrile], the EC50 in experiment [1] (setting [3]) came out at 2360 nM. The IC50 in experiment [2] (setting [4]) stood at 96 nM.

As for `CC(C)n1cc([C@@H](Nc2cc(Cl)c3ncc(C#N)c(Nc4cnc(F)c(F)c4)c3c2)c2cccc(-c3nccn3C)c2)nn1` [Example 385, (S)-8-chloro-4-((5,6-difluoropyridin-3-yl)amino)-6-(((1-isopropyl-1H-1,2,3-triazol-4-yl)(3-(1-methyl-1H-imidazol-2-yl)phenyl)methyl)amino) quinoline-3-carbonitrile], the EC50 in experiment [1] (setting [3]) turned out to be 692 nM. In experiment [2] (setting [7]), the IC50 came out at 4 nM.

For the compound `CC1(CNc2c(C#N)cnc3c(Cl)cc(N[C@@H](c4ccccc4)c4cn(C5CCN(C(C)(C)C)CC5)nn4)cc23)CCC1` [Example 453, (S)-6-(((1-(1-(tert-butyl)piperidin-4-yl)-1H-1,2,3-triazol-4-yl)(phenyl)methyl)amino)-8-chloro-4-(((1-methylcyclobutyl)methyl)amino)quinoline-3-carbonitrile], the EC50 in experiment [1] (setting [3]) came to 231 nM. For the same compound, in experiment [2] (setting [4]), the IC50 was 11 nM.

For `CC[C@@H](Nc1c(C#N)cnc2c(Cl)cc(N[C@H](c3cn(C4CC4)nn3)c3cc(C#N)ccc3Cl)cc12)c1ccccc1` [Example 258, 8-chloro-6-(((S)-(2-chloro-5-cyanophenyl)(1-cyclopropyl-1H-1,2,3-triazol-4-yl)methyl)amino)-4-(((R)-1-phenylpropyl)amino)quinoline-3-carbonitrile], in experiment [1] (setting [3]), the EC50 was found to be 651 nM. The IC50 in experiment [2] (setting [7]) is 44 nM.

For `N#Cc1cnc2c(Cl)cc(N[C@H](c3cn(C4CC4)nn3)c3cccc(Cl)c3Cl)cc2c1Nc1cnc(F)c(F)c1` [Example 293, (S)-8-chloro-6-(((1-cyclopropyl-1H-1,2,3-triazol-4-yl)(2,3-dichlorophenyl)methyl)amino)-4-((5,6-difluoropyridin-3-yl)amino)quinoline-3-carbonitrile], the EC50 in experiment [1] (setting [3]) came to 469 nM. The IC50 in experiment [2] (setting [7]) was 24 nM.

`N#CCC[C@@H](Nc1c(C#N)cnc2c(C#N)cc(N[C@@H](c3ccccc3)c3cn(C4CC4)nn3)cc12)c1ccccc1` [Example 949, 4-(((R)-3-cyano-1-phenylpropyl)amino)-6-(((S)-(1-cyclopropyl-1H-1,2,3-triazol-4-yl)(phenyl)methyl)amino) quinoline-3,8-dicarbonitrile]: in experiment [1] (setting [5]), the EC50 stood at 19 nM. Further, the IC50 in experiment [2] (setting [6]) was 1 nM.

Take `CC[C@@H](Nc1c(C#N)cnc2c(Cl)cc(N[C@@H](c3cccc(C(=O)N(C)C)c3)c3cn(C4CCN(C(C)(C)C)CC4)nn3)cc12)c1ccccc1` [Example 600, 3-((S)-(1-(1-(tert-butyl)piperidin-4-yl)-1H-1,2,3-triazol-4-yl)((8-chloro-3-cyano-4-(((R)-1-phenylpropyl)amino)quinolin-6-yl)amino)methyl)-N,N-dimethylbenzamide]: the EC50 in experiment [1] (setting [3]) worked out at 78 nM. Besides, in experiment [2] (setting [4]), the IC50 was 2 nM.

On to `Cc1ccc(Nc2c(C#N)cnc3c(Cl)cc(N[C@@H](c4ccc(Cl)cc4)c4cn(C5CCN(C(C)(C)C)CC5)nn4)cc23)cc1` [Example 742, (S)-6-(((1-(1-(tert-butyl)piperidin-4-yl)-1H-1,2,3-triazol-4-yl)(4-chlorophenyl)methyl)amino)-8-chloro-4-(p-tolylamino)quinoline-3-carbonitrile], for which the EC50 in experiment [1] (setting [3]) turned out to be 1770 nM. Besides, the IC50 in experiment [2] (setting [4]) turned out to be 315 nM.

Take `Cc1c(-c2cn[nH]c2)cccc1[C@H](Nc1cc(Cl)c2ncc(C#N)c(NCC(C)(C)C)c2c1)c1cn(C2(C(F)(F)F)CC2)nn1` [Example 1164, (S)-8-chloro-6-(((2-methyl-3-(1H-pyrazol-4-yl)phenyl) (1-(1-(trifluoromethyl)cyclopropyl)-1H-1,2,3-triazol-4-yl)methyl)amino)-4-(neopentylamino) quinoline-3-carbonitrile]: the EC50 in experiment [1] (setting [5]) worked out at 66 nM. In addition, the IC50 in experiment [2] (setting [6]) turned out to be 13 nM.

With `CC(Nc1c(C#N)cnc2c(Cl)cc(N[C@@H](c3ccc(Cl)cc3)c3cn(C4CCN(C(C)(C)C)CC4)nn3)cc12)c1cccnc1` (stereo partly drawn) [Example 699, 6-(((S)-(1-(1-(tert-butyl)piperidin-4-yl)-1H-1,2,3-triazol-4-yl)(4-chlorophenyl)methyl)amino)-8-chloro-4-((1-(pyridin-3-yl)ethyl)amino)quinoline-3-carbonitrile], the EC50 in experiment [1] (setting [3]) is 10600 nM. In experiment [2] (setting [4]), the IC50 amounted to 379 nM.

`[2H][C@](Nc1cc(Cl)c2ncc(C#N)c(Nc3cccc(Cl)c3S(C)(=O)=O)c2c1)(c1ccc(F)cc1)c1cn(C2CC2)nn1` [Example 935, (S)-8-chloro-4-((3-chloro-2-(methylsulfonyl)phenyl)amino)-6-(((1-cyclopropyl-1H-1,2,3-triazol-4-yl)(4-fluorophenyl)methyl-d)amino)quinoline-3-carbonitrile]: in experiment [1] (setting [5]), the EC50 was not below 1000 nM. Besides, the IC50 in experiment [2] (setting [6]) was not below 10000 nM.

`Cc1c(Cl)cccc1Nc1c(C#N)cnc2c(Cl)cc(N[C@@H](c3ccc(Cl)cc3)c3cn(C4CCN(C(C)(C)C)CC4)nn3)cc12` [Example 687, (S)-6-(((1-(1-(tert-butyl)piperidin-4-yl)-1H-1,2,3-triazol-4-yl)(4-chlorophenyl)methyl)amino)-8-chloro-4-((3-chloro-2-methylphenyl)amino)quinoline-3-carbonitrile]: in experiment [1] (setting [3]), the EC50 worked out at 2830 nM. The IC50 in experiment [2] (setting [4]) came to 40 nM.

As to `CC(C)(C)CNc1c(C#N)cnc2c(C#N)cc(N[C@H](c3cn(C4(c5ccncc5)CC4)nn3)c3ccccc3Cl)cc12` [Example 1011, (S)-6-(((2-chlorophenyl)(1-(1-(pyridin-4-yl)cyclopropyl)-1H-1,2,3-triazol-4-yl)methyl)amino)-4-(neopentylamino) quinoline-3,8-dicarbonitrile], the EC50 in experiment [1] (setting [5]) worked out at 22 nM. Besides, the IC50 in experiment [2] (setting [6]) was found to be 3 nM.

In the case of `Cc1c(-c2cccnc2)cccc1[C@H](Nc1cc(C#N)c2ncc(C#N)c(NCC(C)(C)C)c2c1)c1cn(C2(C(F)(F)F)CC2)nn1` [Example 1136, (S)-6-(((2-methyl-3-(pyridin-3-yl)phenyl)(1-(1-(trifluoromethyl)cyclopropyl)-1H-1,2,3-triazol-4-yl)methyl)amino)-4-(neopentylamino)quinoline-3,8-dicarbonitrile], the EC50 in experiment [1] (setting [5]) worked out at 128 nM. The IC50 in experiment [2] (setting [6]) is 4 nM.

As to `N#Cc1cnc2c(Cl)cc(N[C@@H](c3ccc(F)cc3)c3cn(CC(F)F)nn3)cc2c1Nc1cnc(F)c(F)c1` [Example 409, (S)-8-chloro-6-(((1-(2,2-difluoroethyl)-1H-1,2,3-triazol-4-yl)(4-fluorophenyl)methyl)amino)-4-((5,6-difluoropyridin-3-yl)amino)quinoline-3-carbonitrile], the half-maximal effective concentration (EC50) in experiment [1] (setting [3]) is 776 nM. Moreover, in experiment [2] (setting [4]), the IC50 was 23 nM.

Turning to `[2H][C@](Nc1cc(Cl)c2ncc(C#N)c(NN3CCCCCC3)c2c1)(c1ccc(F)cc1)c1cn(C2CC2)nn1` [Example 177, (S)-4-(azepan-1-ylamino)-8-chloro-6-(((1-cyclopropyl-1H-1,2,3-triazol-4-yl)(4-fluorophenyl)methyl-d)amino)quinoline-3-carbonitrile], in experiment [1] (setting [3]), the half-maximal effective concentration (EC50) came to 2460 nM. Also, the half-maximal inhibitory concentration (IC50) in experiment [2] (setting [7]) was found to be 370 nM.

With `[2H][C@](Nc1cc(C#N)c2ncc(C#N)c(NC3CCCC3(C)C)c2c1)(c1ccc(F)cc1)c1cn(C2CC2)nn1` (stereo partly drawn) [Example 1034, 6-(((S)-(1-cyclopropyl-1H-1,2,3-triazol-4-yl)(4-fluorophenyl)methyl-d)amino)-4-((2,2-dimethylcyclopentyl)amino) quinoline-3,8-dicarbonitrile], the EC50 in experiment [1] (setting [5]) is 93 nM. Besides, in experiment [2] (setting [6]), the IC50 worked out at 4 nM.

As for `[2H][C@](Nc1cc(Cl)c2ncc(C#N)c(N[C@H](C)c3ccccc3)c2c1)(c1ccc(F)cc1)c1cn(C2CC2)nn1` [Example 227, 8-chloro-6-(((S)-(1-cyclopropyl-1H-1,2,3-triazol-4-yl)(4-fluorophenyl)methyl-d)amino)-4-(((R)-1-phenylethyl)amino) quinoline-3-carbonitrile], the concentration giving a half-maximal response (EC50) in experiment [1] (setting [3]) was 426 nM. Further, the IC50 in experiment [2] (setting [7]) turned out to be 11 nM.
